Legend:
[1] = molecular target: T1, Histone-lysine N-methyltransferase EZH2 (Homo sapiens, UniProt Q15910); experiment: Inhibition of wild-type EZH2 in PRC2 complex (unknown origin) using RKQLATKAARK(Me3)SAPATGGVKKP-NH2 peptide substrate preincubated for 30 mins followed by addition of [3H]-SAM measured after 2 hrs by Topcount scintillation proximity assay
[2] = molecular target: T1, Histone-lysine N-methyltransferase EZH2; experiment: Inhibition of EZH2 in human HeLa cells assessed as inhibition of trimethylation of H3K27 after 72 hrs by AlphaLISA assay; format: cell-based
[3] = Intrinsic clearance in mouse liver microsomes assessed per mg protein; format: ADME, Microsome
[4] = Intrinsic clearance in rat liver microsomes assessed per mg protein; format: ADME, Microsome
[5] = Intrinsic clearance in dog liver microsomes assessed per mg protein; format: ADME, Canis lupus familiaris, Microsome
[6] = Protein binding in mouse plasma assessed as bound fraction; format: ADME, cell-free; settings: for fraction unbound: read-out: PPB (converted)
[7] = Protein binding in rat plasma assessed as bound fraction; format: ADME, cell-free; settings: read-out: PPB (converted)
[8] = Protein binding in dog plasma assessed as bound fraction; format: ADME, cell-free, Canis lupus familiaris; settings: read-out: PPB (converted)
[9] = Protein binding in human plasma assessed as bound fraction; format: ADME, cell-free; settings: read-out: PPB (converted)
CYP3A4 = CYP3A4 (Homo sapiens, UniProt P08684); experiment: Inhibition of CYP3A4 (unknown origin) at 10 uM relative to control; format: ADME
Chain of CYP3A4 (P08684 whole entry): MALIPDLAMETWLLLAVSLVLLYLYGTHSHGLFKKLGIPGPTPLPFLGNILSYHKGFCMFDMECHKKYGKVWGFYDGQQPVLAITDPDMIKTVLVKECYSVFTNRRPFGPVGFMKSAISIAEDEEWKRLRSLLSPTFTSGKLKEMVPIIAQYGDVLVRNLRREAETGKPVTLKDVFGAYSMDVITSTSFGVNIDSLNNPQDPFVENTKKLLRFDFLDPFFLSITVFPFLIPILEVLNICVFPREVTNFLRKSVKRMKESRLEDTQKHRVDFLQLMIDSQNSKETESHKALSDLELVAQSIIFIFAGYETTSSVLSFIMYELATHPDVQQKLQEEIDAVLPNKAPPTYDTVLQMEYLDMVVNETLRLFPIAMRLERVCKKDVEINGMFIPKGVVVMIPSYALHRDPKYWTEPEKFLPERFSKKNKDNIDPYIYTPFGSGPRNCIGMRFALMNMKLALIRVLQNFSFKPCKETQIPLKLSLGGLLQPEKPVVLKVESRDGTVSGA

CYP2D6 = CYP2D6 (Homo sapiens, UniProt P10635); experiment: Inhibition of CYP2D6 (unknown origin) at 10 uM relative to control; format: ADME
Chain of CYP2D6 (P10635 whole entry): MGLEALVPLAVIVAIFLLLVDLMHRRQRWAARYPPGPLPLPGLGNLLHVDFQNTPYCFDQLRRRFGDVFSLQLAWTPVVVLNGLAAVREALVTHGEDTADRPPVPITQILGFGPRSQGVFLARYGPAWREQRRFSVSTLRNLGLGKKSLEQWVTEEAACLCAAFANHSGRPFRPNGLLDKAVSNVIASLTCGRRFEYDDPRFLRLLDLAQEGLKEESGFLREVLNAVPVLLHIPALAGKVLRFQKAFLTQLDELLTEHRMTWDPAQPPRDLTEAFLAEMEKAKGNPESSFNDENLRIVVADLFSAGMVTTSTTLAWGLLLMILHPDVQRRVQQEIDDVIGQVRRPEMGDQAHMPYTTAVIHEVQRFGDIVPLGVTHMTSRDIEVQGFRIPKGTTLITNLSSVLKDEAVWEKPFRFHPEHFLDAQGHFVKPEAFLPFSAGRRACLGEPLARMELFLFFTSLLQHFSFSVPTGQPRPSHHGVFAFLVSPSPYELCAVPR

CYP2C8 = molecular target: T2, CYP2C8 (Homo sapiens, UniProt P10632); experiment: Inhibition of CYP2C8 (unknown origin) at 10 uM relative to control; format: ADME
T2 sequence (P10632 whole entry): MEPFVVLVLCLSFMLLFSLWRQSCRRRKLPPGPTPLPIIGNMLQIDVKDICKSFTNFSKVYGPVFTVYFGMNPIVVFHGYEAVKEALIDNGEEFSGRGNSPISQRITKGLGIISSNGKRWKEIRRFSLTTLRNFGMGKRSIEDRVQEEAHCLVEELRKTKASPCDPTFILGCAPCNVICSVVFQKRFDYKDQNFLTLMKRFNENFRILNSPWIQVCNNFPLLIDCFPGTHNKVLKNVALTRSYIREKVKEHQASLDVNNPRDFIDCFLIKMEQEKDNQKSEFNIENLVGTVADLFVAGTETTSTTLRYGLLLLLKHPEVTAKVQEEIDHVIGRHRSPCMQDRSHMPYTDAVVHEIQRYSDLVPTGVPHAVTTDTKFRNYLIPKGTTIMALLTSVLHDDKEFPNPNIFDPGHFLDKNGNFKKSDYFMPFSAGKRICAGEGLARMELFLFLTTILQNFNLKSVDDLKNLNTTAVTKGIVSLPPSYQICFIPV

CYP1A2 = molecular target: T3, CYP1A2 (Homo sapiens, UniProt P05177); experiment: Inhibition of CYP1A2 (unknown origin) at 10 uM relative to control; format: ADME
T3 sequence (P05177 whole entry): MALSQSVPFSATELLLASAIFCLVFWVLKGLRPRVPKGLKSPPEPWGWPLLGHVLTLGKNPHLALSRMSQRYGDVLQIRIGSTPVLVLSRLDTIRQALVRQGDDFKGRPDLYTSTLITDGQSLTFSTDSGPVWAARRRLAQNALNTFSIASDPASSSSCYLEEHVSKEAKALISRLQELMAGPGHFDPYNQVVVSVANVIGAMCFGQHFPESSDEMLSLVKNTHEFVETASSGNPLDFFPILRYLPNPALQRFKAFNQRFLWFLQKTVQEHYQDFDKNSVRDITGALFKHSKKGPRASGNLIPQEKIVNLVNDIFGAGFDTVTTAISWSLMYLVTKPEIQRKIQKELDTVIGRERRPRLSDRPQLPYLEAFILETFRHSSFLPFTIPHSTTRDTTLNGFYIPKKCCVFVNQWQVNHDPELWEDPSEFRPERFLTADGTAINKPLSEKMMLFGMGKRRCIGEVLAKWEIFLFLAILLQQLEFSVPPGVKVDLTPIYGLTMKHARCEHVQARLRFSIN

CYP2C9 = CYP2C9 (Homo sapiens, UniProt P11712); experiment: Inhibition of CYP2C9 (unknown origin) at 10 uM relative to control; format: ADME
Chain of CYP2C9 (P11712 whole entry): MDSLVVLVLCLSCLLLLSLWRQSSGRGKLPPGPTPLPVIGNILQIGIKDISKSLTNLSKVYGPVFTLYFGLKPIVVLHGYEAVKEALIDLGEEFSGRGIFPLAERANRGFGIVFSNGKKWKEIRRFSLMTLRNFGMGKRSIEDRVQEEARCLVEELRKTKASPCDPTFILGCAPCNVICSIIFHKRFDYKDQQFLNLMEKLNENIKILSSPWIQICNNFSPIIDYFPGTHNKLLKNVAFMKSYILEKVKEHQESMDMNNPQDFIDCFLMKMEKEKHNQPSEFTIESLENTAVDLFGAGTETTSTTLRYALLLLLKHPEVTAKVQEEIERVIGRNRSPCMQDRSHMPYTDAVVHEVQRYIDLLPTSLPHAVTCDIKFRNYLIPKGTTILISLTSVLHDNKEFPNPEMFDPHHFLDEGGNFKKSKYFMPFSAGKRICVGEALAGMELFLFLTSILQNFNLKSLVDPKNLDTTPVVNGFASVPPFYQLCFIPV

[10] = Clearance in Balb/c mouse at 1 mg/kg, iv formulated with 5:25:70 DMA/PEG400/20% SBECD; format: ADME, organism-based; settings: in vivo
[11] = Unbound clearance in Balb/c mouse at 1 mg/kg, iv formulated with 5:25:70 DMA/PEG400/20% SBECD; format: ADME, organism-based; settings: in vivo
[12] = Clearance in Balb/c mouse at 1 mg/kg, iv formulated with 5:25:70 DMA/PEG400/20% SBECD relative to liver blood flow; format: ADME, organism-based; settings: in vivo
[13] = Half life in Balb/c mouse plasma at 1 mg/kg, iv formulated with 5:25:70 DMA/PEG400/20% SBECD; format: ADME, organism-based
[14] = Volume of distribution at steady in Balb/c mouse at 1 mg/kg, iv formulated with 5:25:70 DMA/PEG400/20% SBECD; format: ADME, organism-based; settings: in vivo, read-out: Vdss
[15] = AUC (0 to infinity) in Balb/c mouse at 100 mg/kg, po formulated in 0.5 % methyl cellulose maintained at pH 3; format: ADME, organism-based; set-up: time infinity, route oral, dose 100 mg/kg; settings: in vivo, pH 3, 100 mg/kg
[16] = Unbound AUC in Balb/c mouse at 100 mg/kg, po formulated in 0.5 % methyl cellulose maintained at pH 3; format: ADME, organism-based; settings: in vivo, pH 3, 100 mg/kg
[17] = Cmax in Balb/c mouse at 100 mg/kg, po formulated in 0.5 % methyl cellulose maintained at pH 3; format: ADME, organism-based; set-up: route oral, dose 100 mg/kg; settings: in vivo, pH 3, 100 mg/kg
[18] = Unbound Cmax in Balb/c mouse at 100 mg/kg, po formulated in 0.5 % methyl cellulose maintained at pH 3; format: ADME, organism-based; settings: in vivo, pH 3, 100 mg/kg
[19] = Tmax in Balb/c mouse at 100 mg/kg, po formulated in 0.5 % methyl cellulose maintained at pH 3; format: ADME, organism-based; settings: in vivo, pH 3, 100 mg/kg
[20] = Oral bioavailability in Balb/c mouse at 100 mg/kg formulated in 0.5 % methyl cellulose maintained at pH 3; format: ADME, organism-based; settings: in vivo, pH 3, 100 mg/kg
[21] = Fraction unbound in mouse plasma; format: ADME, cell-free
[22] = Intrinsic clearance in human liver microsomes assessed per mg protein; format: ADME, Microsome

T1 sequence (Q15910 whole entry): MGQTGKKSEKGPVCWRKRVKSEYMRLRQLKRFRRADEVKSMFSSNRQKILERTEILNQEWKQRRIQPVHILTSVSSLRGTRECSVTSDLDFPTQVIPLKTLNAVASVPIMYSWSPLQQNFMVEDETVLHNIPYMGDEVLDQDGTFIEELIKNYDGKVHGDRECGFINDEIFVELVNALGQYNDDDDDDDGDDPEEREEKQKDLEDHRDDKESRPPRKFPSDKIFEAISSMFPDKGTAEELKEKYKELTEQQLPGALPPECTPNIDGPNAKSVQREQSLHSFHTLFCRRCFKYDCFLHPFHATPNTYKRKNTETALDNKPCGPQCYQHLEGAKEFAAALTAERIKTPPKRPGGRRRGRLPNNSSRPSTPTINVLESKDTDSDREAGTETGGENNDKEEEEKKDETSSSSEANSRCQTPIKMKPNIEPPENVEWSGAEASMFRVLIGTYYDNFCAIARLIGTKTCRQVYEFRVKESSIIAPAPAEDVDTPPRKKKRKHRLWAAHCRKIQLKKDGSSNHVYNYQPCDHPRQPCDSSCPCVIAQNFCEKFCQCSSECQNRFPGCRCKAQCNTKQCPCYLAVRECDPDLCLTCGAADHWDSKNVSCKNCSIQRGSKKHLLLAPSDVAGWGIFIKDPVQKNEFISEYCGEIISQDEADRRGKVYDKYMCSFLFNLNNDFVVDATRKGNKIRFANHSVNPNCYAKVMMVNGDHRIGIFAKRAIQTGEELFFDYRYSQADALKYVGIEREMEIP

Work on `COc1cc(C)[nH]c(=O)c1CNC(=O)c1c(C)n([C@H](C)C2CCN(CC(F)(F)C(F)F)CC2)c2ccccc12` yielded an IC50 [1] of 1.6 nM and an EC50 [2] of 38 nM.

`COc1cc(C)[nH]c(=O)c1CNC(=O)c1c(C)n([C@H](C)C2CCN(CC(F)F)CC2)c2ccccc12` showed an IC50 [1] of 1.8 nM, an EC50 [2] of 39 nM and a CLH [3] of 131 µL/min. The CLH [4] was 71.3 µL/min, the CLH [5] was 52.4 µL/min and the PPB [6] was 97.8%. The fraction unbound [7] was 0.169, the fraction unbound [8] was 0.357 and the fraction unbound [9] was 0.167. The inhibition at 10 µM (CYP3A4) was 25.2%, the inhibition at 10 µM (CYP2D6) was 26.1% and the inhibition at 10 µM (CYP2C8) was 18.9%. For the same molecule, the inhibition at 10 µM (CYP1A2) was 28.6%, the inhibition at 10 µM (CYP2C9) was 25.4% and the clearance [10] was 74.2 mL/min/kg. For the same molecule, the CL free [11] was 3372 mL/min/kg, the CL [12] was 82% and the half-life [13] was 24.1 min. It also gave a Vd [14] of 1.1 L/kg, an AUC [15] of 42.01 µM·h and a fAUC [16] of 0.924 µM·h. It also gave a Cmax [17] of 52.1 µM, a fCmax [18] of 1.15 µM and a Tmax [19] of 15 min. For the same molecule, the F [20] was 91.6% and the Fu [21] was 0.022%.

In the case of `CCOC(=O)CN1CCC([C@@H](C)n2c(C)c(C(=O)NCc3c(OC)cc(C)[nH]c3=O)c3ccccc32)CC1`, the IC50 [1] is reported as < 1 nM and the EC50 [2] is reported as 260 nM.

In the case of `COc1cc(C)[nH]c(=O)c1CNC(=O)c1c(C)n([C@H](C)C2CCN(CC(C)(F)F)CC2)c2ccccc12`, the IC50 [1] is reported as < 1 nM, the EC50 [2] is reported as 20 nM and the CLH [3] is reported as 193 µL/min. It also gave a CLH [4] of 86.1 µL/min, a CLH [5] of 68.9 µL/min and a CLH [22] of 83.8 µL/min. The fraction unbound [6] was 0.006, the fraction unbound [7] was 0.076 and the fraction unbound [8] was 0.064. For the same molecule, the fraction unbound [9] was 0.053, the inhibition at 10 µM (CYP3A4) was 0% and the inhibition at 10 µM (CYP2D6) was 7.7%. It also gave an inhibition at 10 µM (CYP2C8) of 50.9%, an inhibition at 10 µM (CYP1A2) of 0% and an inhibition at 10 µM (CYP2C9) of 5%.

Molecule `COc1cc(C)[nH]c(=O)c1CNC(=O)c1c(C)n([C@H](C)C2CCNCC2)c2ccccc12` has an IC50 [1] of 2 nM and an EC50 [2] of 1100 nM.

For `COc1cc(C)[nH]c(=O)c1CNC(=O)c1c(C)n([C@H](C)C2CCN(CCC(F)(F)F)CC2)c2ccccc12`, the IC50 [1] was 2.3 nM, the EC50 [2] was 290 nM and the CLH [3] was 61.3 µL/min. It also gave a CLH [4] of 25.7 µL/min, a CLH [5] of 35.3 µL/min and a CLH [22] of 35.4 µL/min. For the same molecule, the fraction unbound [6] was 0.003, the fraction unbound [7] was 0.026 and the fraction unbound [8] was 0.037. The fraction unbound [9] was 0.041, the inhibition at 10 µM (CYP3A4) was 5% and the inhibition at 10 µM (CYP2D6) was 17.2%. It also gave an inhibition at 10 µM (CYP2C8) of 23.1%, an inhibition at 10 µM (CYP1A2) of 19.4% and an inhibition at 10 µM (CYP2C9) of 11.6%.

For `COc1cc(C)[nH]c(=O)c1CNC(=O)c1c(C)n([C@H](C)C2CCN(C3COC3)CC2)c2ccccc12`, the IC50 [1] was < 1 nM and the EC50 [2] was 150 nM.

With `COc1cc(C)[nH]c(=O)c1CNC(=O)c1c(C)n([C@H](C)C2CCN(C)CC2)c2ccccc12` the IC50 [1] was < 1 nM and the EC50 [2] was 470 nM.

With `COc1cc(C)[nH]c(=O)c1CNC(=O)c1c(C)n([C@H](C)C2CCN(C(=O)OC(C)C)CC2)c2ccccc12` the IC50 [1] was < 1 nM and the EC50 [2] was 110 nM.

For `COc1cc(C)[nH]c(=O)c1CNC(=O)c1c(C)n([C@H](C)C2CCN(C(=O)N(C)C)CC2)c2ccccc12`, the IC50 [1] was 3.3 nM and the EC50 [2] was 930 nM.

With `COc1cc(C)[nH]c(=O)c1CNC(=O)c1c(C)n([C@H](C)C2CCN(C(=O)C(C)C)CC2)c2ccccc12` the IC50 [1] was 2.5 nM and the EC50 [2] was 420 nM.
